Patent US20090214637A1, “Novel Gene Therapy Approach For Treating The Metabolic Disorder Obesity” (NEUROLOGIX, INC., priority 2007, published 2009)

Columns and labels:
[1] = 2-DG induced food intake versus saline; format: in vivo, mice; conditions: over 4 h, compared to saline
Source text: FIG. 8A-B depicts the effect of Hip2 silencing on the response to 2-deoxy-D-glucose (2-DG) induced hypoglycemia.
Silencing of Hip2 was achieved by AAV vectors encoding the Hip2 small hairpin RNA (Hip2 shRNA) delivered into the VMN region of the brain via injection. AAV vectors encoding the luciferase shRNA were used as controls. […] Furthermore, reduction of Hip2 levels also had no effect on the ability of the VMN neurons to sense glucose levels in blood.

primary VMN neurons = experiment: Number of glucose sensing neurons after estradiol, calcium imaging; format: cell-based; conditions: 1 nM, 24 h, primary VMN neurons from female rats
Procedure: Overexpression of ERα in a murine hypothalamic cell line […] (FIG. 9A-C) has led to upregulation of glucose sensing genes. In order to determine whether these effects are also dependent on estrogen, primary VMN neurons from female rats were treated 17-β-estradiol at physiological levels (1 nM) and the number of glucose sensing neurons were measured in 24 h using calcium imaging.

dissociated VMN neurons = experiment: Depolarization of dissociated VMN neurons by 17β-estradiol; format: cell-based, mice; conditions: 1 nM or 10 nM

Structure (SMILES) | food intake [1] | number of glucose-excited neurons (primary VMN neurons) | depolarization of cells with nuclear ERα staining (dissociated VMN neurons) | depolarization of membrane ERα-immunoreactive cells (dissociated VMN neurons; dissociated VMN neurons from postnatal female mice)
O=CC[C@@H](O)[C@H](O)[C@H](O)CO [2-DG, 2-deoxy-D-glucose] | significantly increased food intake | – | – | –
C[C@]12CC[C@@H]3c4ccc(O)cc4CC[C@H]3[C@@H]1CC[C@@H]2O [17β-estradiol] | – | increased the number of glucose-excited neurons | did not depolarize | majority of membrane ERα-immunoreactive cells depolarized
